Reference: article PMC6864407 (Pharmacology Research & Perspectives, 2019)

Columns and labels:
[1] = test system: VEGF‐induced fluorescein leakage; set-up: method as in PMID 23169884; settings: ocular instillation in rabbits; cited from earlier work
[2] = test system: choroidal neovascularization; set-up: method as in PMID 21620822; settings: after ocular instillation in rats; cited from earlier work
[3] = Pharmacokinetic study (ocular distribution) in monkeys after single ocular instillation; settings: monkey, 4 h, regorafenib 17.1 mg/mL (50 μL/eye) or pazopanib 5.0 mg/mL (30 μL/eye)
Procedure: (§1) In the rabbit and monkey studies, sample preparation and determination of drug concentrations were performed in the same manner for the rat pharmacokinetic study.

laser‐induced CNV = experiment: Laser‐induced monkey CNV model; settings: for Change in incidence of Grade 4 lesions between Day‐1 and Day35: Fisher's exact test, Day‐1 vs Day 35; for Percentage of Grade 4 lesion: aflibercept 500 μg/eye intravitreal once, mean of 6 eyes
Procedure: Pharmacological study in laser‐induced monkey CNV model was conducted by referring to and optimizing the previous researches.28, 29, 30 Animals were allocated to groups to minimize bias in the incidence and severity of CNV lesions and body weight between the groups.
After the induction of mydriasis by instillation of Mydrin‐P ophthalmic solution has been confirmed, animals were anesthetized by intramuscular injection with a mixture solution of ketamine hydrochloride/xyladine (7/1, v/v). A fundus contact lens (Centralis Direct; Volk Optical Inc) was attached to the cornea with Scopisol solution and the position of the macula was confirmed. Laser was irradiated on the macula to induce CNV (8 sites per eye, 6 eyes per group). The laser irradiation conditions were as follows; wavelength: 532 nm, spot size: 80 μm, irradiation time: 0.1 seconds, and laser output: 1000 mW. The laser irradiation was conducted 21 days before the initiation of ocular instillation of test articles.
Aflibercept (500 μg/eye) was administered by intravitreal injection to the animals once 22 days after the laser irradiation.
In the aflibercept dosed group, fluorescein fundus angiography and CNV grade evaluation were conducted at the same time points in eye‐drops dosed groups.
Fluorescite Intravenous Injection 500 mg was administered into the cephalic vein under mydriasis and anesthesia. Photographs of fundus were taken with a fundus camera (VX‐10α; Kowa Co., Ltd., Aichi, Japan) approximately 1, 3, and 5 minutes after the administration of fluorescein. Each CNV lesion was graded as follows; Grade 1: no hyperfluorescence, Grade 2: hyperfluorescence without leakage, Grade 3: hyperfluorescence in the early (1 minute after administration of fluorescein) or midtransit (3 minutes after administration of fluorescein) images and late (5 minutes after administration of fluorescein) leakage, Grade 4: bright hyperfluorescence in the early or midtransit images and late leakage beyond the treated area in reference to the previous studies.28, 29, 30 The incidences of Grade 1, Grade 2, Grade 3 and Grade 4 lesions in the each eye (6 eyes per group) were calculated by the following equation, the incidence of grade lesion (%) = the number of grade lesions/ 8 × 100. The mean value of the incidences of Grade 4 lesions was calculated from 6 individual data in each group.
Fisher's exact test was performed for the incidence of Grade 4 lesions between Day‐1 and Day 35 in each group. MiTOX System (Mitsui E&S Systems Research Inc (former company name; Mitsui Zosen Systems Research Inc) was used for the statistical analysis at a two‐sided significance level of 5%.

neovascular AMD = settings: eye‐drop formulations; cited from earlier work
melanin = test system: melanin; set-up: method as in PMID 23385800; settings: cited from earlier work
in vivo = settings: rat, topical or ocular; for half-life: t1/2, rat
Procedure: (§2) The both eyes (dosed eye and nondosed eye) were collected and washed by water, and then the eye tissues (the choroid/sclera and retina) were collected.
(§3) An aliquot of acetonitrile solution containing an internal standard was added to the plasma sample and mixed. After centrifugation, supernatant was mixed with 10 mmol/L ammonium acetate solution to prepare a sample for determination of drug concentration by liquid chromatography‐tandem mass spectrometry (LC/MS/MS). An aliquot of 50 vol% methanol was added to the eye tissues, and then homogenized by a beads shocker to prepare homogenate samples. An aliquot of the acetonitrile solution containing the internal standard was added to the homogenate samples and mixed. After centrifugation, supernatant was mixed with 10 mmol/L ammonium acetate solution to prepare samples for the determination of drug concentrations.
(§4) LC/MS/MS system consisted of ACQUITY UPLC system (Waters Corporation) and QTRAP6500 (AB SCIEX) was used for the determination of drug concentrations. The prepared samples were separated by ACQUITY UPLC peptide BEH C18 column (1.7 µm, 2.1 × 50 mm) (Waters Corporation, Milford, MA), with mobile phase A: 10 mmol/L ammonium acetate solution and mobile phase B: acetonitrile. After injection of the prepared samples to LC/MS/MS, the samples were eluted (0.2 mL/minutes) with 30% B followed 0.10 minutes isocratic period; 3.90 minutes linear gradient to 70% B; 0.01 minutes linear gradient to 30% B; and 1.49 minutes isocratic period. Multiple reaction monitoring was performed by using an atmospheric pressure chemical ionization probe, and monitor ion of regorafenib and pazopanib were 482.958/270.000 (m/z, Q1/Q3) and 438.184/356.900 (m/z, Q1/Q3), respectively.
(§5) The pharmacokinetic parameters of regorafenib and pazopanib in the eye tissues and plasma were calculated by average concentrations in the eye tissues and plasma. Maximum concentration (Cmax) and the time to reach Cmax (tmax) were obtained directly from the observed values. Log‐transformed concentrations were plotted against time. The elimination rate constant (ke) was estimated by linear least‐squares method using the last 2 or 3 observed data points. Apparent half‐life (t1/2) was obtained as ln2/ke. Area under the concentration vs time curve (AUC) from time 0 to the observed data point (AUC0‐t) was calculated using the linear trapezoidal method. AUC after the last data point was estimated by extrapolating with the ke and added up with AUC0‐t to calculate AUC from time 0 to infinity (AUC0‐∞).

[4] = Pharmacokinetic study in rats after single ocular instillation; settings: rat; for AUC0‐t / AUC0‐∞ / AUC: single ocular instillation, 10 μL/eye; for AUC0‐t / AUC0‐∞ / AUC / Concentration: regorafenib 21.2 mg/mL or pazopanib 4.9 mg/mL; for concentration at 0.5 h: topical; for half-life / Tmax / AUC: topical or ocular; for Concentration: choroid/sclera, 0.01 mL; for choroid/sclera concentration: 0.5 hours after administration;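 as to all read-outs here: drug levels in plasma and homogenized choroid/sclera and retina quantified by LC/MS/MS, parameters derived from mean concentrations, t1/2 from terminal log-linear slope, AUC via linear trapezoids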
Procedure: as §2, §3, §4, §5

[5] = Pharmacokinetic study in rabbits after single ocular instillation; settings: rabbit, choroid/retina, 1.5 h, regorafenib 24.1 mg/mL or pazopanib 5.0 mg/mL, 0.02 mL
Procedure: as §1

[6] = choroid/sclera of the dosed eye
[7] = in vivo, choroid/sclera of dosed eye, single ocular instillation, regorafenib 21.2 mg/mL or pazopanib 4.9 mg/mL, 10 μL/eye
[8] = in vivo, plasma, single ocular instillation, regorafenib 21.2 mg/mL or pazopanib 4.9 mg/mL, 10 μL/eye

Compound: Cc1ccc(Nc2nccc(N(C)c3ccc4c(C)n(C)nc4c3)n2)cc1S(N)(=O)=O.Cl [Pazopanib, 5‐[[4‐[(2,3‐dimethylindazol‐6‐yl)‐methylamino]pyrimidin‐2‐yl]amino]‐2‐methylbenzenesulfonamide hydrochloride]
- Suppression of VEGF‐induced fluorescein leakage in the posterior eye tissues [1]: failed to suppress
- Effect on angiogenesis and vascular hyperpermeability [2]: reduced angiogenesis and vascular hyperpermeability
- Concentration ([3]; cornea, nondosed eye): BLQ (<1) ng/g
- Change in incidence of Grade 4 lesions between Day‐1 and Day35 (laser‐induced CNV): no significant difference
- Clinical efficacy of eye‐drop formulation in neovascular AMD (neovascular AMD): lack of efficacy
- Binding to melanin (melanin): strongly binds to melanin
- Tmax (in vivo; [6]): 4 h
- AUC0‐t ([4]; choroid/sclera of dosed eye): 42 100 h × ng/g
- AUC0‐∞ ([4]; choroid/sclera of dosed eye): 112 000 h × ng/g
- concentration at 0.5 h [4, 6]: 293 ng/g
- half-life [4, 6]: 245 h
- concentration at 0.5 h ([4]; choroid/sclera of the nondosed eye): 11.3 ng/g
- Tmax ([4]; plasma): 0.5 h
- half-life ([4]; plasma): 20.1 h
- AUC ([4]; plasma, AUC0‐t): 1280 ng·h/mL
- AUC ([4]; plasma, AUC0‐∞): 1300 ng·h/mL
- AUC0‐t ([4]; retina of dosed eye): 3450 ng·h/g
- AUC0‐∞ ([4]; retina of dosed eye): 6660 ng·h/g
- Tmax ([4]; retina of the dosed eye): 120 h
- half-life ([4]; retina of the dosed eye, 4.9 mg/mL (10 μL/eye)): 159 h

Compound: CNC(=O)c1cc(Oc2ccc(NC(=O)Nc3ccc(Cl)c(C(F)(F)F)c3)c(F)c2)ccn1.O [Regorafenib, 4‐[4‐ ({[4‐Chloro‐3‐(trifluoromethyl)phenyl]carbamoyl}amino)‐3‐fluorophenoxy]‐N‐methylpyridine‐2‐carboxamide monohydrate]
- Concentration ([3]; choroid, nondosed eye): BLQ (<3) ng/g
- Concentration ([3]; cornea, dosed eye): 350 ng/g
- Concentration ([3]; cornea, nondosed eye): BLQ (<3) ng/g
- Concentration ([3]; iris/ciliary body, dosed eye): 49.4 ng/g
- Concentration ([3]; iris/ciliary body, nondosed eye): BLQ (<3) ng/g
- Concentration ([3]; retina, dosed eye): BLQ (<3) ng/g
- Concentration ([3]; retina, nondosed eye): BLQ (<3) ng/g
- Clinical efficacy of eye‐drop formulation in neovascular AMD (neovascular AMD): lack of efficacy
- AUC (in vivo; in vivo, AUC0‐t, plasma, single ocular instillation, regorafenib 21.2 mg/mL or pazopanib 4.9 mg/mL, 10 μL/eye): 1010 ng·h/mL
- AUC (in vivo; in vivo, AUC0‐∞, plasma, single ocular instillation, regorafenib 21.2 mg/mL or pazopanib 4.9 mg/mL, 10 μL/eye): 1060 ng·h/mL
- Cmax (in vivo; [7]): 1310 ng/g
- Cmax (in vivo; [8]): 38.6 ng/mL
- Cmax (in vivo; in vivo, retina of dosed eye, single ocular instillation, regorafenib 21.2 mg/mL or pazopanib 4.9 mg/mL, 10 μL/eye): 28 ng/g
- half-life (in vivo; [7]): 29.7 h
- half-life (in vivo; [8]): 23.9 h
- Tmax (in vivo; in vivo, tmax): 0.5 h
- Tmax (in vivo; in vivo, tmax, plasma, single ocular instillation, regorafenib 21.2 mg/mL or pazopanib 4.9 mg/mL, 10 μL/eye): 7 h
- Tmax (in vivo; in vivo, tmax, retina of dosed eye, single ocular instillation, regorafenib 21.2 mg/mL or pazopanib 4.9 mg/mL, 10 μL/eye): 7 h
- AUC0‐t ([4]; choroid/sclera of dosed eye): 15 300 h × ng/g
- AUC0‐∞ ([4]; choroid/sclera of dosed eye): 16 400 h × ng/g
- Concentration ([4]; dosed eye, 1.5 h): 552 ng/g
- Concentration ([4]; dosed eye, 4 h): 340 ng/g
- Concentration ([4]; nondosed eye, 1.5 h): 29.1 ng/g
- Concentration ([4]; nondosed eye, 4 h): 72.3 ng/g
- choroid/sclera concentration ([4]; dosed eye): 1310 ng/g
- choroid/sclera concentration ([4]; nondosed eye): 129 ng/g
- AUC0‐t ([4]; retina of dosed eye): 517 ng·h/g
- Concentration ([5]; dosed eye): BLQ (<1) ng/g
- Concentration ([5]; nondosed eye): BLQ (<1) ng/g

Compound: Aflibercept: 40 mg/mL EYLEA Injection For Intravitreal Injection; anti‐VEGF agent, positive control
- Percentage of Grade 4 lesion (laser‐induced CNV; Day 8, pazopanib eye‐drops 5.0 mg/mL four times daily): 4.2%
- Percentage of Grade 4 lesion (laser‐induced CNV; Day 15, pazopanib eye‐drops 5.0 mg/mL four times daily): 4.2%
- Percentage of Grade 4 lesion (laser‐induced CNV; Day 22, pazopanib eye‐drops 5.0 mg/mL four times daily): 4.2%
- Percentage of Grade 4 lesion (laser‐induced CNV; Day 29, pazopanib eye‐drops 5.0 mg/mL four times daily): 4.2%
- Change in incidence of Grade 4 lesions between Day‐1 and Day35 (laser‐induced CNV): significant efficacy had been maintained until Day35
